#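 Briefly, cells in 96-well plates were exposed to five compound concentrations for 48 h, and endpoints were estimated by linear interpolation. At the TGI there is no net growth.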
# What was measured:
# Assay in all cases: growth of human tumour cells (NCI), 48 h
# SK-MEL-28 melanoma = test system: SK-MEL-28 melanoma
# EKVX NSCLC = test system: EKVX NSCLC
# CCRF-CEM leukemia = test system: CCRF-CEM leukemia
# 786-0 renal = test system: 786-0 renal
# OVCAR-4 ovarian = test system: OVCAR-4 ovarian
# HCT-15 colon = test system: HCT-15 colon
# MDA-N = test system: MDA-N
# SK-MEL-2 melanoma = test system: SK-MEL-2 melanoma
# OVCAR-8 ovarian = test system: OVCAR-8 ovarian
# HOP-92 NSCLC = test system: HOP-92 NSCLC
# UACC-257 melanoma = test system: UACC-257 melanoma
# LOX IMVI melanoma = test system: LOX IMVI melanoma
# NCI-H460 lung = test system: NCI-H460 lung
# HT29 colon = test system: HT29 colon
# HS 578T breast = test system: HS 578T breast
# OVCAR-3 ovarian = test system: OVCAR-3 ovarian
# U251 CNS = test system: U251 CNS
# NCI-H522 lung = test system: NCI-H522 lung
# MDA-MB-435 = test system: MDA-MB-435
# NCI/ADR-RES ovarian = test system: NCI/ADR-RES ovarian
# UACC-62 melanoma = test system: UACC-62 melanoma
# A498 renal = test system: A498 renal
# HCT-116 colon = test system: HCT-116 colon
# HL-60(TB) leukemia = test system: HL-60(TB) leukemia
# MDA-MB-231 breast = test system: MDA-MB-231 breast
# SN12C renal = test system: SN12C renal
# SW-620 colon = test system: SW-620 colon
# NCI-H23 lung = test system: NCI-H23 lung
# CAKI-1 renal = test system: CAKI-1 renal
# IGROV1 ovarian = test system: IGROV1 ovarian
# T-47D breast = test system: T-47D breast
# A549 NSCLC = test system: A549 NSCLC
# MCF7 breast = test system: MCF7 breast
# SF-268 CNS = test system: SF-268 CNS
# DU-145 prostate = test system: DU-145 prostate
# SNB-19 CNS = test system: SNB-19 CNS
# MALME-3M melanoma = test system: MALME-3M melanoma
# PC-3 prostate = test system: PC-3 prostate
# ACHN renal = test system: ACHN renal
# HCC-2998 colon = test system: HCC-2998 colon
# BT-549 breast = test system: BT-549 breast
# M14 melanoma = test system: M14 melanoma
# TK-10 renal = test system: TK-10 renal
# UO-31 renal = test system: UO-31 renal
# OVCAR-5 ovarian = test system: OVCAR-5 ovarian
# COLO 205 colon = test system: COLO 205 colon
# K-562 leukemia = test system: K-562 leukemia
# SK-MEL-5 melanoma = test system: SK-MEL-5 melanoma
# SF-295 CNS = test system: SF-295 CNS
# SR leukemia = test system: SR leukemia
# RPMI-8226 leukemia = test system: RPMI-8226 leukemia
# KM12 colon = test system: KM12 colon
# HOP-62 NSCLC = test system: HOP-62 NSCLC
# NCI-H226 lung = test system: NCI-H226 lung
# SK-OV-3 ovarian = test system: SK-OV-3 ovarian
# SNB-75 CNS = test system: SNB-75 CNS
# RXF 393 renal = test system: RXF 393 renal
# SF-539 CNS = test system: SF-539 CNS
# MOLT-4 leukemia = test system: MOLT-4 leukemia
structure (smiles),measurement,setting,value
Cc1ccc(S[C@@H](C)[C@@](O)(CF)CN(Cc2ccccc2)C(=O)C(F)(F)F)cc1,TGI,SK-MEL-28 melanoma,> 100 µM
same,TGI,EKVX NSCLC,64.9 µM
same,TGI,CCRF-CEM leukemia,> 100 µM
same,TGI,786-0 renal,35.4 µM
same,TGI,OVCAR-4 ovarian,34.2 µM
same,TGI,HCT-15 colon,55.5 µM
same,TGI,MDA-N,62.7 µM
same,TGI,SK-MEL-2 melanoma,36.5 µM
same,TGI,OVCAR-8 ovarian,> 100 µM
same,TGI,HOP-92 NSCLC,> 100 µM
same,TGI,UACC-257 melanoma,56.8 µM
same,TGI,LOX IMVI melanoma,> 100 µM
same,TGI,NCI-H460 lung,36.9 µM
same,TGI,HT29 colon,27.6 µM
same,TGI,HS 578T breast,61.7 µM
same,TGI,OVCAR-3 ovarian,27 µM
same,TGI,U251 CNS,35.3 µM
same,TGI,NCI-H522 lung,> 100 µM
same,TGI,MDA-MB-435,40.4 µM
same,TGI,NCI/ADR-RES ovarian,69.5 µM
same,TGI,UACC-62 melanoma,34.8 µM
same,TGI,A498 renal,29.7 µM
same,TGI,HCT-116 colon,27.3 µM
same,TGI,HL-60(TB) leukemia,46.2 µM
same,TGI,MDA-MB-231 breast,54.3 µM
same,TGI,SN12C renal,33.5 µM
same,TGI,SW-620 colon,75.2 µM
same,TGI,NCI-H23 lung,56.7 µM
same,TGI,CAKI-1 renal,99.7 µM
same,TGI,IGROV1 ovarian,> 100 µM
same,TGI,T-47D breast,68.5 µM
same,TGI,A549 NSCLC,32.1 µM
same,TGI,MCF7 breast,58.2 µM
same,TGI,SF-268 CNS,> 100 µM
same,TGI,DU-145 prostate,53.2 µM
same,TGI,SNB-19 CNS,55 µM
same,TGI,MALME-3M melanoma,44.2 µM
same,TGI,PC-3 prostate,94.3 µM
same,TGI,ACHN renal,60.3 µM
same,TGI,HCC-2998 colon,41.5 µM
same,TGI,BT-549 breast,46.5 µM
same,TGI,M14 melanoma,31.7 µM
same,TGI,TK-10 renal,> 100 µM
same,TGI,UO-31 renal,31 µM
same,TGI,OVCAR-5 ovarian,34.8 µM
C(=C/CCCN1O[C@@H](CCCCCCCCc2cccnc2)[C@H]2CCC[C@H]21)/CCCCCCCCCc1cccnc1,TGI,SK-MEL-28 melanoma,48.7 µM
same,TGI,EKVX NSCLC,13.9 µM
same,TGI,CCRF-CEM leukemia,41.3 µM
same,TGI,786-0 renal,37 µM
same,TGI,OVCAR-4 ovarian,> 100 µM
same,TGI,HCT-15 colon,58.9 µM
same,TGI,MDA-N,71.9 µM
same,TGI,COLO 205 colon,30.9 µM
same,TGI,SK-MEL-2 melanoma,52.4 µM
same,TGI,OVCAR-8 ovarian,88.3 µM
same,TGI,HOP-92 NSCLC,28.1 µM
same,TGI,UACC-257 melanoma,41.7 µM
same,TGI,LOX IMVI melanoma,35.3 µM
same,TGI,K-562 leukemia,29 µM
same,TGI,NCI-H460 lung,39.2 µM
same,TGI,HT29 colon,61.1 µM
same,TGI,HS 578T breast,> 100 µM
same,TGI,OVCAR-3 ovarian,36.1 µM
same,TGI,SK-MEL-5 melanoma,43.7 µM
same,TGI,SF-295 CNS,41.9 µM
same,TGI,U251 CNS,34.5 µM
same,TGI,MDA-MB-435,38 µM
same,TGI,NCI/ADR-RES ovarian,88.5 µM
same,TGI,UACC-62 melanoma,51 µM
same,TGI,A498 renal,45.5 µM
same,TGI,HCT-116 colon,40.4 µM
same,TGI,SR leukemia,51.5 µM
same,TGI,RPMI-8226 leukemia,28 µM
same,TGI,HL-60(TB) leukemia,23 µM
same,TGI,MDA-MB-231 breast,36.9 µM
same,TGI,SN12C renal,40.3 µM
same,TGI,SW-620 colon,91.8 µM
same,TGI,NCI-H23 lung,61.7 µM
same,TGI,CAKI-1 renal,33.1 µM
same,TGI,KM12 colon,58.7 µM
same,TGI,IGROV1 ovarian,79.4 µM
same,TGI,HOP-62 NSCLC,49.3 µM
same,TGI,T-47D breast,66.6 µM
same,TGI,NCI-H226 lung,36.8 µM
same,TGI,A549 NSCLC,47.2 µM
same,TGI,SK-OV-3 ovarian,47.2 µM
same,TGI,SNB-75 CNS,51.4 µM
same,TGI,RXF 393 renal,32.9 µM
same,TGI,MCF7 breast,31.6 µM
same,TGI,SF-268 CNS,63.7 µM
same,TGI,DU-145 prostate,> 100 µM
same,TGI,SF-539 CNS,34.9 µM
same,TGI,SNB-19 CNS,85 µM
same,TGI,MALME-3M melanoma,33.9 µM
same,TGI,PC-3 prostate,46.1 µM
same,TGI,BT-549 breast,95.7 µM
same,TGI,M14 melanoma,63 µM
same,TGI,MOLT-4 leukemia,55.1 µM
same,TGI,TK-10 renal,38.4 µM
same,TGI,UO-31 renal,40.5 µM
same,TGI,OVCAR-5 ovarian,41.5 µM

# — PubChem BioAssay (NCI)
